Among the data in article PMC3139011 (Archives of biochemistry and biophysics, 2011) are Kd values, retold here.

One assay deals with T1, hDUOX1_1–593 (Homo sapiens, UniProt Q9NRD9).
T1 sequence (Q9NRD9 1-593): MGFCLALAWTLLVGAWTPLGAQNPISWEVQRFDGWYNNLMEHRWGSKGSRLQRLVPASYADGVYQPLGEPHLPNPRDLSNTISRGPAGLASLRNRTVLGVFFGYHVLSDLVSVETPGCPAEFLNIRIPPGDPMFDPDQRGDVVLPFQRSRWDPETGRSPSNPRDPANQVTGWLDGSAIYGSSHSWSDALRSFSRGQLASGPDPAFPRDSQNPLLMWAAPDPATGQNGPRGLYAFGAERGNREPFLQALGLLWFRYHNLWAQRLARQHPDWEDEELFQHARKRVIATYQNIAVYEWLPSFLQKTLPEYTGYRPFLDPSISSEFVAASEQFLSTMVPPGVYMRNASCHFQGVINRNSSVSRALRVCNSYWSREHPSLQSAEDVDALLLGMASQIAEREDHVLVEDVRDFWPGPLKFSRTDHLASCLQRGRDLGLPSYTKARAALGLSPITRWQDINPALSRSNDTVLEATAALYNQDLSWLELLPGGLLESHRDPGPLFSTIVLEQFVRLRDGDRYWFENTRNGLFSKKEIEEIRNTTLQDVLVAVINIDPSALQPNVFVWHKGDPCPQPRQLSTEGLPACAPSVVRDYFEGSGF
Description: heme titration, difference absorbance spectroscopy. It is filed as binding.

In a further assay the target is T2, hDUOX2_1–599 (Homo sapiens, UniProt Q9NRD8).
T2 sequence (Q9NRD8 1-599): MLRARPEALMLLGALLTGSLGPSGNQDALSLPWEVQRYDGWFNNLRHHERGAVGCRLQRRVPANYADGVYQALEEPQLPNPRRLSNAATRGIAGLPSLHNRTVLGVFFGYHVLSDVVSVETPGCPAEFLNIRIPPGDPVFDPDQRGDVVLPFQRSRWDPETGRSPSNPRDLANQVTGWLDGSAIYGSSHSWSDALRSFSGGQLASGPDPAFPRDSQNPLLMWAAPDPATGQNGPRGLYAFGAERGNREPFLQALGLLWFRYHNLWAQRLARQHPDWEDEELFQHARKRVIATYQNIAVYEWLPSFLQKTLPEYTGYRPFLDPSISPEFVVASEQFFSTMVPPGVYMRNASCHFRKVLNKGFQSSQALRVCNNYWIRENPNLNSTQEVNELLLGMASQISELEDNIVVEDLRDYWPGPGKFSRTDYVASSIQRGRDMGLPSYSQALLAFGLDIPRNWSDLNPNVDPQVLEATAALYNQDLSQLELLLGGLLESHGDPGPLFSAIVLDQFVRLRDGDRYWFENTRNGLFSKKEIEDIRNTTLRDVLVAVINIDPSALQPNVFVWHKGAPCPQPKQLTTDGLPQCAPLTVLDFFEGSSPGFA
Kind of assay: heme titration, difference absorbance spectroscopy. The format is binding.

What is called Kd is the free concentration of one partner at which half of the binding sites on the other are occupied at equilibrium, for simple one-to-one binding. A lower Kd goes with tighter binding.

With `C=CC1=C(C)C2=Cc3c(C=C)c(C)c4[n]3[Fe]([Cl])[n]3c(c(C)c(CCC(=O)O)c3=CC3=NC(=C4)C(C)=C3CCC(=O)O)=CC1=N2` [heme], the results for the Kd on hDUOX1_1–593 and at hDUOX2_1–599 were 2700 ± 100 nM and 2400 ± 400 nM, respectively.
